Measured values reported in patent US20240270715A1, “INHIBITORS OF TRANSGLUTAMINASES” (ZEDIRA GMBH, priority 2021, published 2024).

How the values were obtained:
[1] = target: T1, recombinant human transglutaminase 2 (Homo sapiens, UniProt P21980); test: Transglutaminase assay: incorporation of dansylcadaverine into dimethylcasein (DCC-assay); type: biochemical; conditions: recombinant human TG2 10 nM, dansylcadaverine/dimethylcasein; read-out: IC50 TG2
T1 sequence (P21980 1-687): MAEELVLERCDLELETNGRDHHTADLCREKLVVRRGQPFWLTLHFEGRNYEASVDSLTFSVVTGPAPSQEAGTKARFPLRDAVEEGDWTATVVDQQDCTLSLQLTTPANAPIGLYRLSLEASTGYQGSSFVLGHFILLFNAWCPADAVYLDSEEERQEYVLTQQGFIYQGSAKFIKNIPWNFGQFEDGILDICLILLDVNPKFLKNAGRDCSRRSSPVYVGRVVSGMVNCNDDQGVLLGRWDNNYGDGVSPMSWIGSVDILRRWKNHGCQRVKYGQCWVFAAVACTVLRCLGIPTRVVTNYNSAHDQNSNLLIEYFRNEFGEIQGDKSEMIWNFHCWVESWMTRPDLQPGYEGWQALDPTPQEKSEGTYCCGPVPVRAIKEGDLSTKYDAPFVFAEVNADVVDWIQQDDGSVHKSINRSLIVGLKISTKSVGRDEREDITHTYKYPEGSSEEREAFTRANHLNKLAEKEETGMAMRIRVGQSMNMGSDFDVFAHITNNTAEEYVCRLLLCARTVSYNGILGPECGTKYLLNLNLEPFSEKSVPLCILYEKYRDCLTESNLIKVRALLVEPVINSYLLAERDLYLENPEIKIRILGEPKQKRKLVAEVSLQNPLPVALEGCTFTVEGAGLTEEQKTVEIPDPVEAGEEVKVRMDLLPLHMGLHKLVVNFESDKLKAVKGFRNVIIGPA
How it was run: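 Recombinant human TG2 (10 nM final) incorporates dansylcadaverine (16.7 μM) into N,N-dimethylcasein (4 μM) in Tris-HCl buffer, pH 8.0, with 10 mM CaCl2 and 10 mM glutathione. Fluorescence (λex 330, λem 500 nm) followed 30 min. The slope between 20–30 min gives activity versus DMSO control, and IC50 comes from the concentration–activity plot.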

[2] = Log D by shake flask method (octanol / PBS pH 7.4, HPLC); type: physicochemical; conditions: octanol / PBS pH 7.4, shake flask; read-out: logD
How it was run: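 Log D is derived by HPLC measurement of how the compound distributes between octanol and pH 7.4 phosphate-buffered saline in a shake flask.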

[3] = Caco-2 permeability assay (CacoReady kit); type: in vitro ADME; conditions: human
How it was run: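 Intestinal permeability modelled with kit-supplied Caco-2 barriers, run as the maker specifies; each compound reported as Papp.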

With `CCNC(=O)C(=O)CC[C@H](NC(=O)c1cnc(C(C)C)o1)C(=O)Nc1cccn(CC(=O)NC23CCC(C2)C3)c1=O` [Compound I-90, (S)-N1-(1-(2-(bicyclo[2.1.1]hexan-1-ylamino)-2-oxoethyl)-2-oxo-1,2-dihydropyridin-3-yl)-N6-ethyl-2-(2-isopropyloxazole-5-carboxamido)-5-oxohexanediamide] the IC50 [1] was under 150 nM, the logD [2] was under 1 and the Papp [3] was 1 to 10 ×10⁻⁶ cm/s.
`CCNC(=O)C(=O)CC[C@H](NC(=O)c1oc2ccccc2c1Cl)C(=O)Nc1cccn(CC(=O)NC2C3CC4CC(C3)CC2C4)c1=O` (stereo partly drawn) [Compound I-32, (S)-2-(3-chlorobenzofuran-2-carboxamido)-N6-ethyl-N1-(1-(2-(2-adamantylamino)-2-oxoethyl)-2-oxo-1,2-dihydropyridin-3-yl)-5-oxohexanediamide] showed an IC50 [1] of under 150 nM, a logD [2] of 3 to 5 and a Papp [3] of 1 to 10 ×10⁻⁶ cm/s.
Work on `CCNC(=O)C(=O)CC[C@H](NC(=O)c1cn2ccsc2n1)C(=O)Nc1cccn(CC(=O)N[C@@H]2C[C@@H]3CC[C@H]2C3)c1=O` [Compound I-98, (S)-N1-(1-(2-((1S,2R,4R)-bicyclo[2.2.1]heptan-2-ylamino)-2-oxoethyl)-2-oxo-1,2-dihydropyridin-3-yl)-N6-ethyl-2-(imidazo[2,1-b]thiazole-6-carboxamido)-5-oxohexanediamide] yielded an IC50 [1] of 600 to 3500 nM, a logD [2] of 1 to 3 and a Papp [3] of under 1 ×10⁻⁶ cm/s.
`CCNC(=O)C(=O)CC[C@H](NC(=O)c1c(C)nc2sccn12)C(=O)Nc1cccn(CC(=O)N(C)C2C3CC4CC(C3)CC2C4)c1=O` (stereo partly drawn) [Compound I-67, (S)-N1-ethyl-N6-(1-(2-(2-adamantyl(methyl)amino)-2-oxoethyl)-2-oxo-1,2-dihydropyridin-3-yl)-5-(6-methylimidazo[2,1-b]thiazole-5-carboxamido)-2-oxohexanediamide] showed an IC50 [1] of 600 to 3500 nM, a logD [2] of 3 to 5 and a Papp [3] of under 1 ×10⁻⁶ cm/s.
Work on `CCNC(=O)C(=O)CC[C@H](NC(=O)[C@@H]1CCCCN1)C(=O)Nc1cccn(CC(=O)NC2C3CC4CC2CC(Cl)(C4)C3)c1=O` (stereo partly drawn) [Compound I-60, (S)-N1-ethyl-N6-(1-(2-(5-chloroadamantane-2-amino)-2-oxoethyl)-2-oxo-1,2-dihydropyridin-3-yl)-2-oxo-5-((S)-piperidine-2-carboxamido)hexanediamide] yielded an IC50 [1] of 150 to 600 nM, a logD [2] of 1 to 3 and a Papp [3] of under 1 ×10⁻⁶ cm/s.
`CCNC(=O)C(=O)CC[C@H](NC(=O)c1coc2ccccc12)C(=O)Nc1cccn(CC(=O)N[C@H]2C[C@H]3C[C@@H]([C@@H]2C)C3(C)C)c1=O` [Compound I-77, (S)-2-(benzofuran-3-carboxamido)-N6-ethyl-5-oxo-N1-(2-oxo-1-(2-oxo-2-((1S,2S,3S,5R)-2,6,6-trimethylbicyclo[3.1.1]heptan-3-ylamino)ethyl)-1,2-dihydropyridin-3-yl)hexanediamide] showed an IC50 [1] of 150 to 600 nM, a logD [2] of 3 to 5 and a Papp [3] of 1 to 10 ×10⁻⁶ cm/s.
`CCNC(=O)C(=O)CC[C@H](NC(=O)c1oc(Br)cc1C)C(=O)Nc1cccn(CC(=O)NC2C3CC4CC(C3)CC2C4)c1=O` (stereo partly drawn) [Compound I-45, (S)-2-(5-bromo-3-methylfuran-2-carboxamido)-N6-ethyl-N1-(1-(2-(2-adamantylamino)-2-oxoethyl)-2-oxo-1,2-dihydropyridin-3-yl)-5-oxohexanediamide] gave an IC50 [1] of under 150 nM, a logD [2] of 3 to 5 and a Papp [3] of 1 to 10 ×10⁻⁶ cm/s.
With `CCNC(=O)C(=O)CC[C@H](NC(=O)c1cncn1C)C(=O)Nc1cccn(CC(=O)NC23CC4CC(CC(C)(C4)C2)C3)c1=O` [Compound I-25, (S)-N1-ethyl-N6-(1-(2-(3-methyladamantane-1-amino)-2-oxoethyl)-2-oxo-1,2-dihydropyridin-3-yl)-5-(1-methyl-1H-imidazole-5-carboxamido)-2-oxohexanediamide] the IC50 [1] was 150 to 600 nM, the logD [2] was 1 to 3 and the Papp [3] was under 1 ×10⁻⁶ cm/s.
With `CCNC(=O)C(=O)CC[C@H](NC(=O)c1[nH]c2ccccc2c1C)C(=O)Nc1cccn(CC(=O)NC2C3CC4CC(C3)CC2C4)c1=O` (stereo partly drawn) [Compound I-37, (S)-N1-ethyl-N6-(1-(2-(2-adamantylamino)-2-oxoethyl)-2-oxo-1,2-dihydropyridin-3-yl)-5-(3-methyl-1H-indole-2-carboxamido)-2-oxohexanediamide] the IC50 [1] was under 150 nM, the logD [2] was 3 to 5 and the Papp [3] was 1 to 10 ×10⁻⁶ cm/s.
`CCNC(=O)C(=O)CC[C@H](NC(=O)c1cncn1C)C(=O)Nc1cccn(CC(=O)NC23CC4CC(C)(CC(C)(C4)C2)C3)c1=O` [Compound I-4, (S)-N1-ethyl-N6-(1-(2-(3,5-dimethyladamantane-1-amino)-2-oxoethyl)-2-oxo-1,2-dihydropyridin-3-yl)-5-(1-methyl-1H-imidazole-5-carboxamido)-2-oxohexanediamide] gave an IC50 [1] of under 150 nM, a logD [2] of 1 to 3 and a Papp [3] of under 1 ×10⁻⁶ cm/s.
In the case of `CCNC(=O)C(=O)CC[C@H](NC(=O)c1coc(C(C)=O)n1)C(=O)Nc1cccn(CC(=O)NC23CC(C2)C3)c1=O` [Compound I-89, (S)-2-(2-acetyloxazole-4-carboxamido)-N1-(1-(2-(bicyclo[1.1.1]pentan-1-ylamino)-2-oxoethyl)-2-oxo-1,2-dihydropyridin-3-yl)-N6-ethyl-5-oxohexanediamide], the IC50 [1] is reported as under 150 nM, the logD [2] is reported as under 1 and the Papp [3] is reported as under 1 ×10⁻⁶ cm/s.
Compound `CCNC(=O)C(=O)CC[C@H](NC(=O)c1c[nH]c2ccccc12)C(=O)Nc1cccn(CC(=O)NC2C3CC4CC(C3)CC2C4)c1=O` (stereo partly drawn) [Compound I-95, (S)-N1-ethyl-5-(1H-indole-3-carboxamido)-N6-(1-(2-(2-adamantylamino)-2-oxoethyl)-2-oxo-1,2-dihydropyridin-3-yl)-2-oxohexanediamide] has an IC50 [1] of 150 to 600 nM, a logD [2] of 1 to 3 and a Papp [3] of 1 to 10 ×10⁻⁶ cm/s.
In the case of `CCNC(=O)C(=O)CC[C@H](NC(=O)c1cc(Br)c(Br)s1)C(=O)Nc1cccn(CC(=O)NC2C3CC4CC(C3)CC2C4)c1=O` (stereo partly drawn) [Compound I-53, (S)-2-(4,5-dibromothiophene-2-carboxamido)-N6-ethyl-N1-(1-(2-(2-adamantylamino)-2-oxoethyl)-2-oxo-1,2-dihydropyridin-3-yl)-5-oxohexanediamide], the IC50 [1] is reported as under 150 nM, the logD [2] is reported as 3 to 5 and the Papp [3] is reported as 1 to 10 ×10⁻⁶ cm/s.
In the case of `CCNC(=O)C(=O)CC[C@H](NC(=O)c1cncc([N+](=O)[O-])c1)C(=O)Nc1cccn(CC(=O)NCC23CC4CC(CC(C4)C2)C3)c1=O` [Compound I-65, (S)-N1-(1-(2-(1-adamantylmethylamino)-2-oxoethyl)-2-oxo-1,2-dihydropyridin-3-yl)-N6-ethyl-2-(5-nitronicotinamido)-5-oxohexanediamide], the IC50 [1] is reported as under 150 nM, the logD [2] is reported as 1 to 3 and the Papp [3] is reported as 1 to 10 ×10⁻⁶ cm/s.
Compound `CCNC(=O)C(=O)CC[C@H](NC(=O)c1cc2ccccc2o1)C(=O)Nc1cccn(CC(=O)NC2C3CC4CC(C3)CC2C4)c1=O` (stereo partly drawn) [Compound I-30, (S)-2-(benzofuran-2-carboxamido)-N6-ethyl-N1-(1-(2-(2-adamantylamino)-2-oxoethyl)-2-oxo-1,2-dihydropyridin-3-yl)-5-oxohexanediamide] has an IC50 [1] of under 150 nM, a logD [2] of 3 to 5 and a Papp [3] of 1 to 10 ×10⁻⁶ cm/s.
Compound `CCNC(=O)C(=O)CC[C@H](NC(=O)c1ccc2occc2c1)C(=O)Nc1cccn(CC(=O)NC2C3CC4CC2CC(NC(C)=O)(C4)C3)c1=O` (stereo partly drawn) [Compound I-113, (S)-2-(benzofuran-5-carboxamido)-N6-ethyl-N1-(1-(2-(1-acetylamino-4-aminoadamantane)-2-oxoethyl)-2-oxo-1,2-dihydropyridin-3-yl)-5-oxohexanediamide] has an IC50 [1] of 150 to 600 nM, a logD [2] of under 1 and a Papp [3] of under 1 ×10⁻⁶ cm/s.
Work on `CCNC(=O)C(=O)CC[C@H](NC(=O)c1cnc(C)n1C)C(=O)Nc1cccn(CC(=O)NC23CC4CC(C)(CC(C)(C4)C2)C3)c1=O` [Compound I-24, (S)-2-(1,2-dimethyl-1H-imidazole-5-carboxamido)-N6-ethyl-N1-(1-(2-(3,5-dimethyladamantane-1-amino)-2-oxoethyl)-2-oxo-1,2-dihydropyridin-3-yl)-5-oxohexanediamide] yielded an IC50 [1] of 150 to 600 nM, a logD [2] of 1 to 3 and a Papp [3] of under 1 ×10⁻⁶ cm/s.
Compound `CCNC(=O)C(=O)CC[C@H](NC(=O)c1cn(C)nn1)C(=O)Nc1cccn(CC(=O)N[C@@H]2C[C@H]3CC[C@]2(C)C3(C)C)c1=O` [Compound I-75, (S)-N1-ethyl-5-(1-methyl-1H-1,2,3-triazole-4-carboxamido)-2-oxo-N6-(2-oxo-1-(2-oxo-2-((1R,2R,4R)-1,7,7-trimethylbicyclo[2.2.1]heptan-2-ylamino)ethyl)-1,2-dihydropyridin-3-yl)hexanediamide] has an IC50 [1] of 150 to 600 nM, a logD [2] of under 1 and a Papp [3] of 1 to 10 ×10⁻⁶ cm/s.
